Reference: patent US7442784B2, “Ligand activated transcriptional regulator proteins” (The Scripps Research Institute, priority 1999, dated 2008)

Columns and labels:
Assay in all cases: Finger 2 variant affinity (Table 5)
Format in all cases: binding
Finger-2 Subsite GAG = target: Finger-2 Subsite GAG
Excerpt: (§1) Finger 2 variants recognizing each of the 16 triplets of the GXX set (Segal et al. (1999) Proc. Natl. Acad. Sci. U.S.A. 96:2758-2763; and Table 1), as well as one variant recognizing TGA, have been successfully selected. […] Thus, a 5′- and 3′-G selected an arginine at helix positions 6 and −1, respectively, while a central G selected an a histidine or lysine at position 3 of the recognition helix. In contrast, a central A selected an asparagine, a 3′-A a glutamine, a central T a serine or alanine, a 3′-T a threonine or serine, a central C an aspartate or threonine, and a 3′-C an aspartate or glutamate at the corresponding helix positions.
(§2) In Table 5, below, the finger 2 variants generated by phage display selection and refined by site-directed mutagenesis are summarized. Protein designations are in the form pXXX, for clones derived from panning; pmXXX refers to clones refined by mutagenesis. Helix positions −1, 3, and 6 are shown in bold, altered nucleotides are underlined. The values represent the results of at least two independent experiments. The standard error was ±50% or less.

Finger-2 Subsite GTG = target: Finger-2 Subsite GTG
Excerpt: as §1, §2

Finger-2 Subsite GTT = target: Finger-2 Subsite GTT
Excerpt: as §1, §2

Substance	KD,Prot/KD,Zif268 (Finger-2 Subsite GAG)	Kd (Finger-2 Subsite GAG) [nM]	KD,Prot/KD,Zif268 (Finger-2 Subsite GTG)	Kd (Finger-2 Subsite GTG) [nM]	KD,Prot/KD,Zif268 (Finger-2 Subsite GTT)	Kd (Finger-2 Subsite GTT) [nM]
pmGTG: finger 2 variant refined by mutagenesis, helix SRSDELVR	3.0	30	1.5	15		
pmGTT: finger 2 variant refined by mutagenesis, helix STSGSLVR					0.5	5
